In ChEMBL document CHEMBL4417634, “DNA2 inhibitors for cancer treatment” (2018):
Active and inactive are the calls of the source. The rule behind the calls is not given here.

Key:
[1] = system: Saccharomyces cerevisiae; assay: Potentiation of DNA damaging agent methyl methane sulfonate-induced cytotoxicity in yeast cells deficient in rad27 by dilution assay; format: functional, organism-based
[2] = system: Saccharomyces cerevisiae; assay: Potentiation of DNA damaging agent methyl methane sulfonate-induced cytotoxicity in yeast cells by dilution assay; format: functional, organism-based
[3] = system: Saccharomyces cerevisiae; assay: Potentiation of high temperature-induced cytotoxicity in yeast cells deficient in rad27 by dilution assay; format: functional, organism-based
[4] = system: Saccharomyces cerevisiae; assay: Potentiation of high temperature-induced cytotoxicity in yeast cells by dilution assay; format: functional, organism-based
[5] = system: LNCaP C4-2; assay: Cytotoxicity against human C4-2 cells assessed as reduction in cell viability incubated for 7 days; format: functional, cell-based; conditions: LNCaP C4-2, 168 h
[6] = system: HCT-116; assay: Cell cycle arrest in human HCT116 cells assessed as accumulation at G1 phase at 10 uM incubated for 48 hrs by propidium iodide staining based flow cytometry (reference value: 76.2%); format: functional
[7] = system: NCI-H460; assay: Cytotoxicity against human NCI-H460 cells assessed as reduction in cell viability incubated for 7 days; format: functional, cell-based; conditions: NCI-H460, 168 h
[8] = system: CWR22R; assay: Cytotoxicity against human 22Rv1 cells assessed as reduction in cell viability incubated for 7 days; format: functional, cell-based; conditions: 22Rv1, 168 h
[9] = system: HCT-116; assay: Cell cycle arrest in human HCT116 cells assessed as accumulation at G2/M phase at 50 uM incubated for 48 hrs by propidium iodide staining based flow cytometry (reference value: […]); format: functional
[10] = system: HCT-116; assay: Cytotoxicity against human HCT116 cells assessed as reduction in cell viability at 10 to 10000 nM in presence of siMRE11 by tryphan blue staining based assay; format: functional
[11] = biological target: Flap endonuclease 1 (Homo sapiens) (UniProt P39748)
Flap endonuclease 1 (Homo sapiens), sequence (P39748 whole entry): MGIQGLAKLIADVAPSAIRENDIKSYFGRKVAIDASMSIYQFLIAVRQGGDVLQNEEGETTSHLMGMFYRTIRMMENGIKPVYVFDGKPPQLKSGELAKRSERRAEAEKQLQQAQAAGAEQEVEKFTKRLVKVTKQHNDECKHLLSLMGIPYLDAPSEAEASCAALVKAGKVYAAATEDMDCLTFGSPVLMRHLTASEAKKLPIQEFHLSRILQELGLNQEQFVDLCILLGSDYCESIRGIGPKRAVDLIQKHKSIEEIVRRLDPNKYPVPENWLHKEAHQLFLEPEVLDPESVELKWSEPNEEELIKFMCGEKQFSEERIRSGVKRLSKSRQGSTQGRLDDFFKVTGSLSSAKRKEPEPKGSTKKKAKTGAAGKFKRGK

[12] = system: HCT-116; assay: Cell cycle arrest in human HCT116 cells assessed as accumulation at G1 phase at 50 uM incubated for 48 hrs by propidium iodide staining based flow cytometry (reference value: 76.2%); format: functional
[13] = system: A549; assay: Cytotoxicity against human A549 cells assessed as reduction in cell viability incubated for 7 days; format: functional, cell-based; conditions: A549, 168 h
[14] = species: Mus musculus; assay: Cytotoxicity against dna2 (-/-) mouse MES cells assessed as cell survival relative to control; format: functional, cell-based
[15] = system: HCT-116; assay: Cell cycle arrest in human HCT116 cells assessed as accumulation at S phase at 10 uM incubated for 48 hrs by propidium iodide staining based flow cytometry (reference value: […]); format: functional
[16] = system: HCT-116; assay: Cell cycle arrest in human HCT116 cells assessed as accumulation at S phase at 50 uM incubated for 48 hrs by propidium iodide staining based flow cytometry (reference value: […]); format: functional
[17] = system: MCF7; assay: Cytotoxicity against human MCF7 cells transfected with shDNA2 assessed as cell survival relative to control; format: functional, cell-based
[18] = system: RWPE-1; assay: Cytotoxicity against human RWPE1 cells assessed as reduction in cell viability incubated for 7 days; format: cell-based; conditions: RWPE-1, 168 h
[19] = system: WiDr; assay: Cytotoxicity against human WiDr cells assessed as reduction in cell viability incubated for 7 days; format: functional, cell-based; conditions: 168 h
[20] = system: DLD-1; assay: Cytotoxicity against human DLD1 cells assessed as reduction in cell viability incubated for 7 days; format: functional, cell-based; conditions: DLD-1, 168 h
[21] = system: HT-29; assay: Cytotoxicity against human HT-29 cells assessed as reduction in cell viability incubated for 7 days; format: functional, cell-based; conditions: HT-29, 168 h
[22] = system: PC-3; assay: Cytotoxicity against human PC3 cells assessed as reduction in cell viability incubated for 7 days; format: functional, cell-based; conditions: PC-3, 168 h
[23] = system: FHC; assay: Cytotoxicity against human FHC cells assessed as reduction in cell viability incubated for 7 days; format: cell-based; conditions: 168 h
[24] = Cytotoxicity against human CWRR1 cells assessed as reduction in cell viability incubated for 7 days; format: functional, cell-based; conditions: 168 h
[25] = species: Homo sapiens; assay: Suppression of 125 nM cisplatin-induced cytotoxicity in FANCD2 (-/-) human PD20 cells assessed as increase in cell survival at 10 uM; format: functional, cell-based
[26] = system: MCF-10A; assay: Cytotoxicity against human MCF10A cells assessed as reduction in cell viability incubated for 7 days; format: cell-based; conditions: 168 h
[27] = system: MCF7; assay: Cytotoxicity against human MCF7 cells assessed as reduction in cell viability incubated for 7 days; format: functional, cell-based; conditions: MCF7, 168 h
[28] = system: HCT-116; assay: Cell cycle arrest in human HCT116 cells assessed as accumulation at G2/M phase at 10 uM incubated for 48 hrs by propidium iodide staining based flow cytometry (reference value: […]); format: functional
[29] = biological target: Exonuclease 1 (Homo sapiens) (UniProt Q9UQ84)
Exonuclease 1 (Homo sapiens), sequence (Q9UQ84 whole entry): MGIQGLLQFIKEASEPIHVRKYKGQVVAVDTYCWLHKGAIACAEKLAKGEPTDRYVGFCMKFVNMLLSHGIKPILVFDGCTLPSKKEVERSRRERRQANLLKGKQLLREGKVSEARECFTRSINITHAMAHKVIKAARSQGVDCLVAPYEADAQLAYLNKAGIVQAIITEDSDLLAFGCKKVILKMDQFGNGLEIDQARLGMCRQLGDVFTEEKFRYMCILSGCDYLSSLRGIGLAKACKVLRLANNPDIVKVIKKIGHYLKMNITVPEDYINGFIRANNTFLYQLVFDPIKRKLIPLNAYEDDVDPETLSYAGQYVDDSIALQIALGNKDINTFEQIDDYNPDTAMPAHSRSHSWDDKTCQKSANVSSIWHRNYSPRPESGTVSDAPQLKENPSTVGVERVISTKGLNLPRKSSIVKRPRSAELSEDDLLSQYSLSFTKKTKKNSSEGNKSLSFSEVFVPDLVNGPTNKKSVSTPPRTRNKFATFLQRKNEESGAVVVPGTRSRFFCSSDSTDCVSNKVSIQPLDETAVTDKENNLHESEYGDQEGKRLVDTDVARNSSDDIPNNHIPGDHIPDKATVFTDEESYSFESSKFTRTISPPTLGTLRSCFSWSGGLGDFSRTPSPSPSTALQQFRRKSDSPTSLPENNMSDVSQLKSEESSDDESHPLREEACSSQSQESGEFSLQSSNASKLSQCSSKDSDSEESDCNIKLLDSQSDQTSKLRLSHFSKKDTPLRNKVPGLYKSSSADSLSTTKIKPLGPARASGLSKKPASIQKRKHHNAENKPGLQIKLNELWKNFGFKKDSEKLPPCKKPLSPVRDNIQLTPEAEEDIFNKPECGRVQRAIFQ

[30] = system: HCT-116; assay: Cytotoxicity against human HCT116 cells assessed as reduction in cell viability at 10 to 10000 nM in presence of siEXO1 by tryphan blue staining based assay; format: functional
[31] = system: HCT-116; assay: Cytotoxicity against human HCT116 cells assessed as reduction in cell viability at 10 to 10000 nM in presence of siFEN1 by tryphan blue staining based assay; format: functional
[32] = system: MDA-MB-231; assay: Cytotoxicity against human MDA-MB-231 cells assessed as reduction in cell viability incubated for 7 days; format: functional, cell-based; conditions: MDA-MB-231, 168 h
[33] = system: NCI-H2030; assay: Cytotoxicity against human NCI-H2030 cells assessed as reduction in cell viability incubated for 7 days; format: functional, cell-based; conditions: NCI-H2030, 168 h
[34] = system: HCT-8; assay: Cytotoxicity against human HCT8 cells assessed as reduction in cell viability incubated for 7 days; format: functional, cell-based; conditions: HCT-8, 168 h
[35] = system: HCT-116; assay: Cytotoxicity against human HCT116 cells assessed as reduction in cell viability incubated for 7 days; format: functional, cell-based; conditions: HCT-116, 168 h
[36] = system: U2OS; assay: Induction of single-stranded DNA accumulation in human U2OS cells assessed as reduction in P-RPA foci at 20 uM; format: functional, cell-based
[37] = system: IMR-90; assay: Cytotoxicity against human IMR90 cells assessed as reduction in cell viability incubated for 7 days; format: cell-based; conditions: IMR-90, 168 h
[38] = system: U2OS; assay: Induction of single-stranded DNA accumulation in human U2OS cells assessed as reduction in P-RPA foci at 50 uM; format: functional, cell-based

## CCCCNC(=O)c1c[nH]c2c([N+](=O)[O-])cccc2c1=O
[1]
  Activity: Active
[2]
  Activity: inactive
[3]
  Activity: Active
[4]
  Activity: inactive

## O=C(O)c1cnc2c([N+](=O)[O-])cccc2c1O
[5]
  IC50: 19.7 µM
[6]
  Activity: 66.9%
[7]
  IC50: 43.7 µM
[8]
  IC50: 11.8 µM
[9]
  Activity: 28.1%
[10]
  Activity: Active
[11]
  inhibition: inactive
[12]
  Activity: 54.1%
[13]
  IC50: 23.6 µM
[1]
  Activity: Active
[2]
  Activity: inactive
[14]
  Activity: Active
[15]
  Activity: 13%
[16]
  Activity: 17.2%
[17]
  Activity: Active
[18]
  IC50: 78.8 µM
[19]
  IC50: 52.6 µM
[3]
  Activity: Active
[20]
  IC50: 25.1 µM
[21]
  IC50: 40.5 µM
[22]
  IC50: 20.9 µM
[23]
  IC50: 75.2 µM
[24]
  IC50: 15.7 µM
[25]
  Activity: Active
[26]
  IC50: 24.4 µM
[27]
  IC50: 7.2 µM
[28]
  Activity: 12.6%
[4]
  Activity: inactive
[29]
  inhibition: inactive
[30]
  Activity: Active
[31]
  Activity: Active
[32]
  IC50: 46.8 µM
[33]
  IC50: 17.7 µM
[34]
  IC50: 27.5 µM
[35]
  IC50: 24.2 µM
[36]
  Activity: inactive
[37]
  IC50: 95.5 µM

## N=C1NC(=O)/C(=C/c2ccc(O)cc2)S1
[38]
  Activity: inactive
